IC50 data for 16 compounds are collected here from patent publication US12686692B2, “KRas G12D inhibitors” (Mirati Therapeutics, Inc., priority 2020, dated 2026).

This experiment addresses KRas G12D (Homo sapiens, UniProt P01116, G12D). Put plainly: KRas G12D Binding Assay (TR-FRET displacement of labeled tracer). Details: corresponding to amino acids 1:169, produced at Array BioPharma; biotin (protein is biotinylated). To be noted: TR-FRET displacement of Cy5 labelled tracer, biotinylated GDP-loaded KRAS G12D (aa 1:169), 60 minute incubation at 22° C. As for the experimental part:
This Example illustrates that exemplary compounds of the present invention bind to KRas G12D and are capable of displacing a labeled tracer ligand occupying the KRas G12D binding site.
The ability of a compound to bind to KRAS G12D was measured using a TR-FRET displacement assay. Biotinylated GDP-loaded recombinant human KRAS G12D (corresponding to amino acids 1:169, produced at Array BioPharma) was incubated with a custom-made Cy5 labelled tracer, europium labelled streptavidin and compound (2% DMSO final) in buffer (50 mM HEPES [pH 7.5], 5 mM MgCl2, 0.005% Tween-20 & 1 mM DTT). After a 60 minute incubation at 22° C., the reaction was measured using a PerkinElmer EnVision multimode plate reader via TR-FRET dual wavelength detection, and the percent of control (POC) calculated using a ratiometric emission factor. […] The POC values were fit to a 4-parameter logistic curve and the IC50 value was determined as the concentration where the curve crosses 50 POC.
On the technique in general: Time-resolved FRET reads energy transfer from a long-lived donor to a nearby acceptor.

Molecules are shown by their SMILES. Bounds are passed on as bounds.

KRas G12D, sequence (P01116 1-169 isoform P01116-2 G12D): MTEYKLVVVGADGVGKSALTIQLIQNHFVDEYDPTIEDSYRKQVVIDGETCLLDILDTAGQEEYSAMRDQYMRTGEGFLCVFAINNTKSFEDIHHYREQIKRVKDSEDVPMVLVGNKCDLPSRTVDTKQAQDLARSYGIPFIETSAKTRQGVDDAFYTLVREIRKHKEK

As a reminder, the IC50 is the concentration that gives 50% inhibition. On to `CN1CCC[C@H]1COc1nc2c(c(N3C[C@H]4C[C@@H](CCN)[C@@H](C3)N4)n1)CCN(c1cccc3cccc(Cl)c13)C2` [Example 39, 2-((1R,5S,6R)-3-(7-(8-chloronaphthalen-1-yl)-2-(((S)-1-methylpyrrolidin-2-yl)methoxy)-5,6,7,8-tetrahydropyrido[3,4-d]pyrimidin-4-yl)-3,8-diazabicyclo[3.2.1]octan-6-yl)ethan-1-amine], for which the IC50 worked out at 2690 nM.

On to `CN1CCC[C@H]1COc1nc2c(c(N3C[C@H]4CC[C@@H](C3)N4)n1)CCN(c1cccc3c(F)cccc13)C2` [Example 16, 4-((1R,5S)-3,8-diazabicyclo[3.2.1]octan-3-yl)-7-(5-fluoronaphthalen-1-yl)-2-(((S)-1-methylpyrrolidin-2-yl)methoxy)-5,6,7,8-tetrahydropyrido[3,4-d]pyrimidine], for which the IC50 turned out to be 1760 nM.

As for `CCCCc1cccc2cccc(N3CCc4c(nc(OC[C@@H]5CCCN5C)nc4N4C[C@H]5CC[C@@H](C4)N5)C3)c12` [Example 81, 4-((1R,5S)-3,8-diazabicyclo[3.2.1]octan-3-yl)-7-(8-butylnaphthalen-1-yl)-2-(((S)-1-methylpyrrolidin-2-yl)methoxy)-5,6,7,8-tetrahydropyrido[3,4-d]pyrimidine], the IC50 worked out at 710 nM.

Take `CN1CCC[C@H]1COc1nc2c(c(N3C[C@H]4CC[C@@H](C3)N4)n1)CCN(c1cccc3cc(O)cc(Cl)c13)C2` [Example 113, 5-(4-((1R,5S)-3,8-diazabicyclo[3.2.1]octan-3-yl)-2-(((S)-1-methylpyrrolidin-2-yl)methoxy)-5,6-dihydropyrido[3,4-d]pyrimidin-7(8H)-yl)-4-chloronaphthalen-2-ol]: the IC50 amounted to 807 nM.

In turn, `FC1(F)CCc2c(N3CCc4c(nc(OCC56CCCN5CCC6)nc4N4C[C@H]5CC[C@@H](C4)N5)C3)cccc21` [Example 101, 4-((1R,5S)-3,8-diazabicyclo[3.2.1]octan-3-yl)-7-(1,1-difluoro-2,3-dihydro-1H-inden-4-yl)-2-((tetrahydro-1H-pyrrolizin-7a(5H)-yl)methoxy)-5,6,7,8-tetrahydropyrido[3,4-d]pyrimidine] returned an IC50 of 2490 nM.

Compound `CN1CCC[C@H]1COc1nc2c(c(N3C[C@H]4CC[C@@H](C3)N4)n1)CCN(c1nc(N)cc3ccccc13)C2` [Example 60, 1-(4-((1R,5S)-3,8-diazabicyclo[3.2.1]octan-3-yl)-2-(((S)-1-methylpyrrolidin-2-yl)methoxy)-5,8-dihydropyrido[3,4-d]pyrimidin-7(6H)-yl)isoquinolin-3-amine] displayed an IC50 greater than 10000 nM.

In turn, `CN1CCC[C@H]1COc1nc2c(c(N3C[C@H]4CC[C@@H](C3)N4)n1)CCN(c1cccc3c(Cl)cccc13)C2` [Example 15, 4-((1R,5S)-3,8-diazabicyclo[3.2.1]octan-3-yl)-7-(5-chloronaphthalen-1-yl)-2-(((S)-1-methylpyrrolidin-2-yl)methoxy)-5,6,7,8-tetrahydropyrido[3,4-d]pyrimidine] showed an IC50 of 7900 nM. That is a single-digit micromolar value.

`CCc1c(F)ccc2cc(O)cc(N3CCc4c(nc(OC[C@@]56CCCN5C[C@H](F)C6)nc4N4C[C@H]5CC[C@@H](C4)N5)C3)c12` [Example 118, 4-(4-((1R,5S)-3,8-diazabicyclo[3.2.1]octan-3-yl)-2-(((2R,7aS)-2-fluorohexahydro-1H-pyrrolizin-7a-yl)methoxy)-5,6-dihydropyrido[3,4-d]pyrimidin-7(8H)-yl)-5-ethyl-6-fluoronaphthalen-2-ol] showed an IC50 of 2.1 nM.

`Clc1ccc2cccc(N3CCc4c(nc(OCC56CCCN5CCC6)nc4N4C[C@H]5CC[C@@H](C4)N5)C3)c2c1Cl` [Example 12, 4-((1R,5S)-3,8-diazabicyclo[3.2.1]octan-3-yl)-7-(7,8-dichloronaphthalen-1-yl)-2-((tetrahydro-1H-pyrrolizin-7a(5H)-yl)methoxy)-5,6,7,8-tetrahydropyrido[3,4-d]pyrimidine]: the IC50 is 345 nM.

With `CN1CCC[C@H]1COc1nc2c(c(N3C[C@H]4C[C@@H](C#N)[C@@H](C3)N4)n1)CCN(c1cccc3cccc(Cl)c13)C2` [Example 92, (1R,5S,6R)-3-(7-(8-chloronaphthalen-1-yl)-2-(((S)-1-methylpyrrolidin-2-yl)methoxy)-5,6,7,8-tetrahydropyrido[3,4-d]pyrimidin-4-yl)-3,8-diazabicyclo[3.2.1]octane-6-carbonitrile], the IC50 came out at 5490 nM.

Regarding `CC(C)c1ccccc1N1CCc2c(nc(OCC34CCCN3[C@@H](COC(=O)N(C)C)CC4)nc2N2CC3CCC(C2)N3)C1` (stereo partly drawn) [Example 32, (7a-(((4-((1R,5S)-3,8-diazabicyclo[3.2.1]octan-3-yl)-7-(2-isopropylphenyl)-5,6,7,8-tetrahydropyrido[3,4-d]pyrimidin-2-yl)oxy)methyl)hexahydro-1H-pyrrolizin-3-yl)methyl dimethylcarbamate (trans enantiomers)], the IC50 is 1170 nM. Compared with the last compound, the IC50 is about 4.7-fold lower.

In turn, `CNC(=O)OC[C@H]1CCC2(COc3nc4c(c(N5CC6CCC(C5)N6)n3)CCN(c3cccc5cccc(C)c35)C4)CCCN12` (stereo partly drawn) [Example 21, (7a-(((4-((1R,5S)-3,8-diazabicyclo[3.2.1]octan-3-yl)-7-(8-methylnaphthalen-1-yl)-5,6,7,8-tetrahydropyrido[3,4-d]pyrimidin-2-yl)oxy)methyl)hexahydro-1H-pyrrolizin-3-yl)methyl methylcarbamate (trans enantiomers)] came in with an IC50 of 12.3 nM.

As to `CN1CCC[C@H]1COc1nc2c(c(N3CC4CCC(CC#N)(C3)N4)n1)CCN(c1cccc3cccc(Cl)c13)C2` (stereo partly drawn) [Example 42, 2-(3-(7-(8-chloronaphthalen-1-yl)-2-(((S)-1-methylpyrrolidin-2-yl)methoxy)-5,6,7,8-tetrahydropyrido[3,4-d]pyrimidin-4-yl)-3,8-diazabicyclo[3.2.1]octan-1-yl)acetonitrile], the IC50 was 1800 nM. Against the preceding compound, the IC50 is about 150-fold higher.

In turn, `CCc1cccc2cccc(N3CCc4c(nc(OC[C@@]56CCCN5C[C@H](F)C6)nc4C4CC5CCC(N5)C4O)C3)c12` (stereo in doubt) [Example 123, (1S,3R,5R)-3-(7-(8-ethylnaphthalen-1-yl)-2-(((2R,7aS)-2-fluorotetrahydro-1H-pyrrolizin-7a(5H)-yl)methoxy)-5,6,7,8-tetrahydropyrido[3,4-d]pyrimidin-4-yl)-8-azabicyclo[3.2.1]octan-2-ol] showed an IC50 of 508 nM.

For the compound `CN1CCC[C@H]1COc1nc2c(c(N3CC4CC(O)(C(F)F)C(C3)N4)n1)CCN(c1cccc3cccc(Cl)c13)C2` (stereo partly drawn) [Example 41, 3-(7-(8-chloronaphthalen-1-yl)-2-(((S)-1-methylpyrrolidin-2-yl)methoxy)-5,6,7,8-tetrahydropyrido[3,4-d]pyrimidin-4-yl)-6-(difluoromethyl)-3,8-diazabicyclo[3.2.1]octan-6-ol], the IC50 is 3130 nM.

`Brc1cc(N2CCc3c(nc(OCC45CCCN4CCC5)nc3N3C[C@H]4CC[C@@H](C3)N4)C2)c2ccccc2c1` [Example 111, 4-((1R,5S)-3,8-diazabicyclo[3.2.1]octan-3-yl)-7-(3-bromonaphthalen-1-yl)-2-((tetrahydro-1H-pyrrolizin-7a(5H)-yl)methoxy)-5,6,7,8-tetrahydropyrido[3,4-d]pyrimidine] had an IC50 of 1050 nM.
